Source: publication PMC10931833, “Simultaneous Purification of Human Interferon Alpha-2b and Serum Albumin Using Bioprivileged Fluorinated Ionic Liquid-Based Aqueous Biphasic Systems” (International Journal of Molecular Sciences, 2024)
Values belong to the compound of their own block, whether it stands above or below them.

Tests used:
[1] = molecular target: T1, BSA (Bos taurus, UniProt P02769); test: DSC thermal unfolding of BSA in water and aqueous solutions of ABS phase-forming components; assay type: physicochemical, bovine; settings: for Tm / ΔG / ΔHcal / ΔHcal/ΔHvH / ΔHvH / ΔS: 1.0 mg/mL BSA
T1 construct: purchased Millipore Sigma-Aldrich
Method: Differential scanning calorimetry (DSC) measurements were performed with Nano DSC equipment, as detailed in Section 3, and used to determine the melting temperature (T m ) and enthalpy ( Δ H) of protein unfolding. DSC analyzes changes in the structure and stability of proteins as thermal transitions at the nanoscale. Using DSC to measure heat capacity as a function of the temperature of a well-studied protein such as BSA provides keen insights into folding and unfolding processes, as well as factors affecting stability. Due to the volume and concentration requirements of the DSC technique, and the constraints in available quantities of IFN- α 2b the DSC experiments on the ABS phase-forming components’ effect on the structural properties of proteins were attained only for BSA.
The T m of BSA, which corresponds to the thermal unfolding transition midpoint, was measured in the absence and presence of the ABS phase-forming components at increasing concentrations (see Figure 1 and Table 2).

[2] = molecular target: T1, BSA; test: CD thermal unfolding (Tm) of BSA; assay type: physicochemical, bovine; settings: 1.0 mg/ml BSA, 200 mM component aqueous solution
Description: The thermal stability assessed by far-UV CD is solely determined through the thermal decay of the alpha-helical structure.

[3] = molecular target: T2, IFN-α2b (Homo sapiens, UniProt P01563); test: Far-UV CD secondary structure of IFN-α2b (CONTIN-LL deconvolution); assay type: physicochemical; settings: 0.125 mg/mL IFN-α2b, 200 mM component, 25 °C
T2 construct: single non-glycosylated polypeptide chain with a molecular weight of 19 kDa, comprising 165 amino acids; purchased Millipore Sigma-Aldrich SRP4595-100UG; host or cells: E. coli
Description: Circular dichroism (CD) is widely used to study the secondary structures of proteins, peptides and nucleic acids, because it requires a low concentration sample, is a nondestructive method, allows studying a wide range of variables (temperature, pH, etc.), and provides information on the effect of added ligands on protein folding and interactions.
Circular dichroism (CD) spectra were collected in a 10 mm quartz cuvette and a Chirascan spectropolarimeter (Applied Photophysics, UK) at room temperature. All CD spectra were recorded in the far-UV range of 190 to 260 nm at scan rates of 50 nm/min, with 4 accumulations, and a response time of 3 s; CD spectra were collected. For each CD experiment, two distinct duplicates were acquired and combined. […] Spectral deconvolution was carried out with DichroWeb using the CONTIN-LL deconvolution algorithm with the SMP180 reference set.

[4] = molecular target: T2, IFN-α2b; test: CD thermal unfolding (Tm) of IFN-α2b; assay type: physicochemical; settings: 0.125 mg/ml IFN-α2b, 200 mM component aqueous solution
Method: The same analyses attained for 208 nm and 192 nm are illustrated in Figures S5 and S6 in the Supplementary Materials. The corresponding T m values are estimated by fitting to a sigmoid with four parameters (one-way ANOVA, significance level of 0.05) and summarized in Table S2 in the Supplementary Materials. The CD T m of 0.125 mg/mL native IFN- α 2b is in good agreement with what was previously reported. […] The estimated T m values are summarized in Table S2 in the Supplementary Materials. The same analysis is attained for 208 nm and 192 nm, as depicted in Figures S5 and S6 in the Supplementary Materials. All the CD T m results are summarized in Table S2 in the Supplementary Materials. The thermal stability assessed by far-UV CD is solely determined through the thermal decay of the alpha-helical structure.
The same analysis was attained for 208 nm and 192 nm as illustrated in Figure S13 in the Supplementary Materials. The corresponding T m values are depicted in Table 5, and were estimated by fitting a sigmoid with four parameters (one-way ANOVA, with a significance level of 0.05).

[5] = design: method as in earlier work; settings: aqueous solution at 25 °C; ITC ([C2C1Im][C4F9SO3]) or conductometry ([N1112(OH)][C4F9SO3]); ref 3 (supplement; main text ref 71); cited from earlier work

T1 sequence (P02769 25-607): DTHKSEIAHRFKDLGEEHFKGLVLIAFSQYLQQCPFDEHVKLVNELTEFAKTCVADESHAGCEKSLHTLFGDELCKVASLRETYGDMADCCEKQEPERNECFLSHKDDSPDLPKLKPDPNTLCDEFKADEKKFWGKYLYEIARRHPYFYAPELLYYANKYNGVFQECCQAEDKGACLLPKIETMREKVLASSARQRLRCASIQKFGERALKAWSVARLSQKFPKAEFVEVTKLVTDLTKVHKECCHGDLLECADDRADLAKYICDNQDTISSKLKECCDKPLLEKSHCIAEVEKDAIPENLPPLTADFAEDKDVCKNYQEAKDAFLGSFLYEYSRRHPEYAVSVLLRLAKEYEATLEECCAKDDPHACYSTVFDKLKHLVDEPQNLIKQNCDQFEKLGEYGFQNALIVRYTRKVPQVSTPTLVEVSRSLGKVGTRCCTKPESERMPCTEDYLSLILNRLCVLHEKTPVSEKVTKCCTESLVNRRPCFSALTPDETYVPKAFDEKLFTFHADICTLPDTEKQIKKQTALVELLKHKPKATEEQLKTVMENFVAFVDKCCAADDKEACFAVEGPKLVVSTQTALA
T2 sequence (P01563 24-188): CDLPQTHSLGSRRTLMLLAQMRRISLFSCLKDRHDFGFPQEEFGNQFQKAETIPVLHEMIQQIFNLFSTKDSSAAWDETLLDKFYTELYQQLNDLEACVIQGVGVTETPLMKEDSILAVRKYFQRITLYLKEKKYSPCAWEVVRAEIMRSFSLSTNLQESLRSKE

Tm ([1]; 0.1 mM component): 74.54 °C
ΔG ([1]; 0.1 mM component): 72.90 kJ/mol
ΔHcal ([1]; 0.1 mM component): 513.1 kJ/mol
ΔHcal/ΔHvH ([1]; 0.1 mM component): 0.946
ΔHvH ([1]; 0.1 mM component): 542.1 kJ/mol
ΔS ([1]; 0.1 mM component): 1.476 KJ/(mol.K)
Tm ([1]; 1 mM component): 75.31 °C
ΔG ([1]; 1 mM component): 61.40 kJ/mol
ΔHcal ([1]; 1 mM component): 422.1 kJ/mol
ΔHcal/ΔHvH ([1]; 1 mM component): 0.987
ΔHvH ([1]; 1 mM component): 427.8 kJ/mol
ΔS ([1]; 1 mM component): 1.210 KJ/(mol.K)
Tm ([1]; 5 mM component): 81.43 °C
ΔG ([1]; 5 mM component): 114.4 kJ/mol
ΔHcal ([1]; 5 mM component): 717.0 kJ/mol
ΔHcal/ΔHvH ([1]; 5 mM component): 1.069
ΔHvH ([1]; 5 mM component): 670.6 kJ/mol
ΔS ([1]; 5 mM component): 2.021 KJ/(mol.K)
Tm ([1]; 10 mM component): 79.02 °C
ΔG ([1]; 10 mM component): 79.80 kJ/mol
ΔHcal ([1]; 10 mM component): 517.5 kJ/mol
ΔHcal/ΔHvH ([1]; 10 mM component): 1.024
ΔHvH ([1]; 10 mM component): 505.2 kJ/mol
ΔS ([1]; 10 mM component): 1.468 KJ/(mol.K)
Tm ([1]; 25 mM component): 72.02 °C
ΔG ([1]; 25 mM component): 46.60 kJ/mol
ΔHcal ([1]; 25 mM component): 336.6 kJ/mol
ΔHcal/ΔHvH ([1]; 25 mM component): 0.992
ΔHvH ([1]; 25 mM component): 339.3 kJ/mol
ΔS ([1]; 25 mM component): 0.973 KJ/(mol.K)
Tm ([1]; 55 mM component): 72.44 °C
ΔG ([1]; 55 mM component): 51.90 kJ/mol
ΔHcal ([1]; 55 mM component): 375.8 kJ/mol
ΔHcal/ΔHvH ([1]; 55 mM component): 0.960
ΔHvH ([1]; 55 mM component): 391.4 kJ/mol
ΔS ([1]; 55 mM component): 1.086 KJ/(mol.K)
Tm ([1]; 120 mM component): 76.32 °C
ΔG ([1]; 120 mM component): 70.70 kJ/mol
ΔHcal ([1]; 120 mM component): 477.1 kJ/mol
ΔHcal/ΔHvH ([1]; 120 mM component): 0.969
ΔHvH ([1]; 120 mM component): 492.3 kJ/mol
ΔS ([1]; 120 mM component): 1.363 KJ/(mol.K)
effect on BSA Tm (DSC) ([1]; tested concentration range vs water): maintained
Tm, Ellipticity 192 nm [2]: 75.050 °C
Tm, Ellipticity 208 nm [2]: 77.089 °C
Tm, Ellipticity 222 nm [2]: 74.833 °C
SMILES: CCCCn1cc[n+](C)c1.O=S(=O)([O-])C(F)(F)F [[C4C1Im][CF3SO3], 1-butyl-3-methylimidazolium trifluoromethanesulfonate]

SMILES: C[N+](C)(C)CCO.O=S(=O)([O-])C(F)(F)C(F)(F)C(F)(F)C(F)(F)F [[N1112(OH)][C4F9SO3], (2-hydroxyethyl)trimethylammonium perfluorobutane sulfonate]
Tm ([1]; 0.1 mM component): 79.77 °C
ΔG ([1]; 0.1 mM component): 93.90 kJ/mol
ΔHcal ([1]; 0.1 mM component): 603.1 kJ/mol
ΔHcal/ΔHvH ([1]; 0.1 mM component): 1.064
ΔHvH ([1]; 0.1 mM component): 567.0 kJ/mol
ΔS ([1]; 0.1 mM component): 1.708 KJ/(mol.K)
Tm ([1]; 1 mM component): 80.57 °C
ΔG ([1]; 1 mM component): 92.40 kJ/mol
ΔHcal ([1]; 1 mM component): 578.1 kJ/mol
ΔHcal/ΔHvH ([1]; 1 mM component): 0.921
ΔHvH ([1]; 1 mM component): 627.7 kJ/mol
ΔS ([1]; 1 mM component): 1.629 KJ/(mol.K)
Tm ([1]; 5 mM component): 79.79 °C
ΔG ([1]; 5 mM component): 110.5 kJ/mol
ΔHcal ([1]; 5 mM component): 708.7 kJ/mol
ΔHcal/ΔHvH ([1]; 5 mM component): 0.884
ΔHvH ([1]; 5 mM component): 801.4 kJ/mol
ΔS ([1]; 5 mM component): 2.007 KJ/(mol.K)
Tm ([1]; 10 mM component): 82.78 °C
ΔG ([1]; 10 mM component): 135.0 kJ/mol
ΔHcal ([1]; 10 mM component): 828.1 kJ/mol
ΔHcal/ΔHvH ([1]; 10 mM component): 1.156
ΔHvH ([1]; 10 mM component): 716.6 kJ/mol
ΔS ([1]; 10 mM component): 2.325 KJ/(mol.K)
Tm ([1]; 25 mM component): 84.18 °C
ΔG ([1]; 25 mM component): 126.8 kJ/mol
ΔHcal ([1]; 25 mM component): 761.3 kJ/mol
ΔHcal/ΔHvH ([1]; 25 mM component): 1.019
ΔHvH ([1]; 25 mM component): 747.2 kJ/mol
ΔS ([1]; 25 mM component): 2.128 KJ/(mol.K)
Tm ([1]; 55 mM component): 86.11 °C
ΔG ([1]; 55 mM component): 132.1 kJ/mol
ΔHcal ([1]; 55 mM component): 772.9 kJ/mol
ΔHcal/ΔHvH ([1]; 55 mM component): 0.929
ΔHvH ([1]; 55 mM component): 831.5 kJ/mol
ΔS ([1]; 55 mM component): 2.149 KJ/(mol.K)
Tm ([1]; 200 mM component): 87.23 °C
ΔG ([1]; 200 mM component): 119.3 kJ/mol
ΔHcal ([1]; 200 mM component): 702.4 kJ/mol
ΔHcal/ΔHvH ([1]; 200 mM component): 1.024
ΔHvH ([1]; 200 mM component): 685.6 kJ/mol
ΔS ([1]; 200 mM component): 1.956 KJ/(mol.K)
increase of BSA Tm (DSC) ([1]; FIL at the highest concentration (120 mM) vs water): ~12 °C
Distorted Alpha Helix [3]: 0.148
Distorted Beta Sheet [3]: 0.064
Regular Alpha Helix [3]: 0.303
Regular Beta Sheet [3]: 0.071
Turns [3]: 0.188
Unordered [3]: 0.226
Tm, Ellipticity 192 nm [4]: 35.992 °C
Tm, Ellipticity 208 nm [4]: 61.234 °C
Tm, Ellipticity 222 nm [4]: 56.542 °C
Tm, Ellipticity 208 nm [2]: 92.409 °C
1st CAC [5]: 16.02 mM
2nd CAC [5]: 35.17 mM
3rd CAC [5]: 185.65 mM
